Source: patent US20250230472A1, “EXTRACTION OF ALKANOIC ACIDS” (priority 2018, published 2025)

Assay: Distribution coefficient of carboxylic acids, water / 20% TAPO in Fragoltherm, two-phase co-culture
Type: physicochemical
Conditions: water and 20% TAPO in Fragoltherm, pH 6.6, after 67 h cultivation at 37° C.
Description: The bacterium Clostridium kluyveri was cultivated in a co culture with Clostridium autoethanogenum for the biotransformation of ethanol and acetate to medium chain fatty acids. For the inSitu extraction of the produced acids the aqueous phase was overlayed with a mixture of Fragoltherm Q-32-N with trialkylphosphineoxide (TAPO). All cultivation steps were carried out under anaerobic conditions, the preculture in a stainless steel bubble column loop reactor and the main culture in a pressure-resistant glass bottle that can be closed airtight with a butyl rubber stopper.
The aqueous phase was then overlayed with 20 ml anaerobisized extracting agent (20% trialkylphosphineoxid (TAPO) in Fragoltherm Q-32-N). The bottle with the two-layer phases was then cultivated at 37° C., 150 rpm and with a gas atmosphere of 10% H2 and 90% N2 in an open water bath shaker for 67 h. The gas atmosphere in the bottle was flushed once a day for 10 min with pure N2.
During cultivation several 5 mL samples from both, the aqueous and the organic phase, were taken to determinate OD600 nm, pH and product formation. The determination of the product concentrations in the aqueous phase was performed by semiquantitative 1H-NMR spectroscopy and high performance liquid chromatography (HPLC) and in the organic phase by semiquantitative 1H-NMR spectroscopy and gas chromatography (GC). […]

## CCCCCC(=O)O [hexanoic acid]
  distribution coefficient K(D): 4.33

## CCCCCCCC(=O)O [octanoic acid]
  distribution coefficient K(D): 108
